# Assay results published in patent US4999358A, “(1,2,3,4-tetrahydro-9-acridinimino)cyclohexane carboxylic acid and related compounds” (Hoechst-Roussel Pharmaceuticals Inc., priority 1989, dated 1991).
# How the values were obtained:
# [1] = system: Scopolamine Induced Memory Deficit; test: Scopolamine-induced Dark Avoidance Assay; conditions: s.c., mice, 24 h
# Method: In this assay mice are tested for their ability to remember an unpleasant stimulus for a period of 24 hours. A mouse is placed in a chamber that contains a dark compartment; a strong incandescent light drives it to the dark compartment, where an electric shock is administered through metal plates on the floor. The animal is removed from the testing apparatus and tested again, 24 hours later, for the ability to remember the electric shock.
# If scopolamine, an anticholinergic that is known to cause memory impariment, is administered before an animal's initial exposure to the test chamber, the animal re-enters the dark compartment shortly after being placed in the test chamber 24 hours later.
# acetylcholinesterase = acetylcholinesterase (Homo sapiens, UniProt P22303); test: Cholinesterase inhibition assay (photometric method of Ellman et al.); type: biochemical
# acetylcholinesterase, sequence (P22303 32-614): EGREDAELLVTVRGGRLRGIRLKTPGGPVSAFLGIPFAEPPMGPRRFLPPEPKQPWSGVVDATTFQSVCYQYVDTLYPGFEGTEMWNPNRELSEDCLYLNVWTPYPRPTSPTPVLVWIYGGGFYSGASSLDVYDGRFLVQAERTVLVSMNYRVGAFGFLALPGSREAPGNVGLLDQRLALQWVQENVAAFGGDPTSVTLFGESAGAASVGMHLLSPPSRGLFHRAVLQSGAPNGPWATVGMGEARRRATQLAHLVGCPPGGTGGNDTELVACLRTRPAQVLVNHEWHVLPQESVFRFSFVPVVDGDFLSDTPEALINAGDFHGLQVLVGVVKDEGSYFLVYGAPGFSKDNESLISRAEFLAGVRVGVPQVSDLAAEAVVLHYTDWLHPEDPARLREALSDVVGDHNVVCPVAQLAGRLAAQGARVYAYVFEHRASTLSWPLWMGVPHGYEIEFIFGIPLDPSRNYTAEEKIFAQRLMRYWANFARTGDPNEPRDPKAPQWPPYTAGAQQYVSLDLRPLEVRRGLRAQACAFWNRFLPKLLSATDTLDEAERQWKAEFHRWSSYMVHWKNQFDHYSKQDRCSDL
smiles,measurement,setting,value
"CNC(=O)Oc1ccc2c(c1)[C@]1(C)CCN(C)[C@@H]1N2C [Physostigmine, reference compound]",% of Animals with Scopolamine Induced Memory Deficit Reversal,[1]; 0.31 mg/kg of body weight,20%
"CC1(C(=O)O)CCCCC1=Nc1c2c(nc3ccccc13)CCCC2 (stereo not drawn) [1-Methyl-2-(1,2,3,4-tetrahydroacridinimino)cyclohexane carboxylic acid]",% of Animals with Scopolamine Induced Memory Deficit Reversal,[1]; 2.5 mg/kg of body weight,20%
"O=C(O)C1CCCCC1=Nc1c2c(nc3ccccc13)CCCC2 (stereo not drawn) [2-(1,2,3,4-Tetrahydro-9-acridinimino)cyclohexanecarboxylic acid]",% of Animals with Scopolamine Induced Memory Deficit Reversal,[1]; 0.63 mg/kg of body weight,53%
"O=C(OCc1ccccc1)C1=C(N(Cc2ccccc2)c2c3c(nc4ccccc24)CCCC3)CCCC1 [2-[N-(Phenylmethyl)-1,2,3,4-tetrahydro-9-acridinamino]-cyclohex-1-ene carboxylic acid phenylmethyl ester]",% of Animals with Scopolamine Induced Memory Deficit Reversal,[1]; 0.63 mg/kg of body weight,29%
"CCOC(=O)C1CCCCC1=Nc1c2c(nc3ccccc13)CCCC2 (stereo not drawn) [2-(1,2,3,4-Tetrahydro-9-acridinimino)cyclohexanecarboxylic acid ethyl ester]",% of Animals with Scopolamine Induced Memory Deficit Reversal,[1]; 0.16 mg/kg of body weight,29%
same,IC50,acetylcholinesterase,15.2 µM
